Assay results: patent US20070066546A1, “Compositions for the reversible thioesterification of signaling proteins and methods of using same” (priority 2005, published 2007)

Key:
[1] = tested on: mouse embryonic fibroblast; settings: cited from earlier work
[2] = tested on: E. coli strain RK4936 (wild-type); assay: Hydroperoxidase I (HPI) assay in crude extracts of treated wild-type bacteria; format: cell-based; settings: wild-type cells, 100 μM, 60 min
Experimental: (§1) Hydroperoxidase I (HPI) Assay. The peroxidase activity of HPI was measured as described (Hausladen, A. et al. (1996) Cell 86, 719-729), in 50 mM potassium phosphate buffer (pH 7.5) containing 0.1 mM EDTA, 10 mM H2O2, and 0.2 mg/ml o-dianisidine, by measuring the increase in absorbance at 460 nm (Clairborne, A. & Fridovich, I. (1979) Biochemistry 18, 2324-2329). An extinction coefficient of 11.3 mM^−1 cm^−1 was used to calculate the specific activity of HPI ((1993) in Worthington Enzyme Manual: Peroxidase, ed. Worthington, V. (Worthington Biochemical Corporation, Freehold, N.J.)).
(§2) HPI, the enzyme encoded by the katG gene, protects bacterial cells against hydrogen peroxide-induced stress. E. coli strains RK4936 (wild-type) and TA4112 (OxyR-null) were grown aerobically to an A600 of 0.5 and then treated with 100 μM F094 or avicin D or G for 60 min. Cells were harvested by centrifugation, and the peroxidase activity in crude extracts was determined (see Materials and Methods). Wild-type (RK4936) and OxyR-null (TA4112) strains of bacteria were treated with avicins and assayed for HPI activity.

OxyR = OxyR (Escherichia coli, UniProt P0ACQ4); assay: In vitro transcription and primer extension with avicin-modified OxyR (katG and oxyS templates); format: biochemical, E. coli; settings: for relative potency as activator of OxyR (in vitro transcriptional activity): comparison between F094, avicin D and avicin G; for OxyR activation as assessed by in vitro transcriptional activation of katG and oxyS: reduced OxyR, strictly anaerobic conditions, avicins:OxyR 1:10-100:1
Chain of OxyR (P0ACQ4 whole entry): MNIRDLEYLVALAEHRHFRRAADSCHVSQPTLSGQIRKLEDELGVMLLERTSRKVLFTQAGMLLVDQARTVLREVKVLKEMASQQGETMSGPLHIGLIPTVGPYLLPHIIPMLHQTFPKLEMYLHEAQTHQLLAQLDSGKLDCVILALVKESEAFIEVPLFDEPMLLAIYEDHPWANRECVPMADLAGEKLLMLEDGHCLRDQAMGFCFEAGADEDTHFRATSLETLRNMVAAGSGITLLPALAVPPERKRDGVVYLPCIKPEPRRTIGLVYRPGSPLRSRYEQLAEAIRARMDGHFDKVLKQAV
Experimental: Reduction of OxyR. The reduced form of OxyR was generated by addition of a large excess of DTT (200 mM) for 1 h, followed by exhaustive dialysis (25 mM potassium phosphate/250 mM potassiumsulfate/1 mM magnesium sulfate/100 μM DTPA, pH 8) in an anaerobic glove box. Removal of DTT was monitored by the color change after addition of 5,5′-dithionitrobenzoic acid to an aliquot of the dialysis buffer.
Treatment of OxyR with Avicins. Reduced OxyR was treated with a 10-fold molar excess of F094 or purified avicin D or G to generate avicin-modified OxyR. The reaction was performed under anaerobic conditions for 1 h, followed by dialysis.
In Vitro Transcription and Primer Extension. In vitro transcription with the various modified forms of OxyR was performed as described (Kim, S. O., et al. (2002) Cell 109, 383-396). Plasmid pBT22 was used as the katG template and pUCOXYS, a plasmid containing the oxyS-coding region cloned into pUC19, was used as the oxyS template. Where indicated, avicin-modified forms of OxyR were reduced with 200 mM DTT. Primer extension assays were performed by using AMV reverse transcriptase (Promega), according to instructions supplied by the manufacturer.
Avicin modified OxyR was incubated with plasmids containing the katG or oxyS genes followed by primer extension (see Materials and Methods). After primer extension, samples were untreated or treated with DTT before gel analysis. Band intensities were quantified (phosphoimager), and data are plotted at top as percent maximal activation (n=2-3). At bottom, corresponding raw data from an individual experiment are depicted.

[3] = tested on: E. coli strain TA4112 (OxyR-null); assay: Hydroperoxidase I (HPI) assay in crude extracts of treated OxyR-null bacteria; format: cell-based; settings: OxyR-null cells, 100 μM, 60 min
Experimental: as §1, §2

| SMILES | decrease in cyclin D1 protein levels ([1]; NAC treatment) | increase in p27 protein levels ([1]; NAC treatment) | increase in intracellular low-molecular-weight thiols ([1]; treatment for 12 h) | HPI activity [2] | relative potency as activator of OxyR (in vitro transcriptional activity) (OxyR) | OxyR activation as assessed by in vitro transcriptional activation of katG and oxyS (OxyR) | HPI activity [3] |
| --- | --- | --- | --- | --- | --- | --- | --- |
| CC(=O)N[C@@H](CS)C(=O)O [NAC, N-acetyl-L-cysteine] | 70% | 3-4 fold | 6 fold | – | – | – | – |
| C=C[C@](C)(O)CC/C=C(\CO)C(=O)O[C@H]1[C@H](O)[C@@H](O)[C@H](O[C@@](C)(C=C)CC/C=C(\CO)C(=O)O[C@H]2C[C@]3(C(=O)O[C@@H]4O[C@H](CO)[C@@H](O)[C@H](O)[C@H]4O[C@@H]4O[C@@H](C)[C@H](O[C@@H]5O[C@@H](CO)[C@H](O)[C@H]5O)[C@@H](O[C@@H]5O[C@H](CO)[C@@H](O)[C@H](O)[C@H]5O)[C@H]4O)[C@H](O)C[C@]4(C)C(=CC[C@@H]5[C@@]6(C)CC[C@H](O[C@@H]7O[C@H](CO[C@@H]8O[C@H](C)[C@H](O)[C@H](O)[C@H]8O[C@@H]8OC[C@@H](O)[C@H](O)[C@H]8O)[C@@H](O)[C@H](O)[C@H]7NC(C)=O)C(C)(C)[C@@H]6CC[C@]54C)[C@@H]3CC2(C)C)O[C@@H]1C [avicin D] | – | – | – | doubled HPI activity | more potent activators than avicin G | resulted in OxyR activation | no increase in activity |
| C=C[C@](C)(O)CC/C=C(\C)C(=O)O[C@H]1[C@H](O)[C@@H](O)[C@H](O[C@@](C)(C=C)CC/C=C(\CO)C(=O)O[C@H]2C[C@]3(C(=O)O[C@@H]4O[C@H](CO)[C@@H](O)[C@H](O)[C@H]4O[C@@H]4O[C@@H](C)[C@H](O[C@@H]5O[C@@H](CO)[C@H](O)[C@H]5O)[C@@H](O[C@@H]5O[C@H](CO)[C@@H](O)[C@H](O)[C@H]5O)[C@H]4O)[C@H](O)C[C@]4(C)C(=CC[C@@H]5[C@@]6(C)CC[C@H](O[C@@H]7O[C@H](CO[C@@H]8O[C@H](C)[C@H](O)[C@H](O)[C@H]8O[C@@H]8OC[C@@H](O)[C@H](O)[C@H]8O)[C@@H](O)[C@H](O)[C@H]7NC(C)=O)C(C)(C)[C@@H]6CC[C@]54C)[C@@H]3CC2(C)C)O[C@@H]1C [avicin G] | – | – | – | doubled HPI activity | lower | resulted in OxyR activation | no increase in activity |
